Results from article PMC10056899, “Neuroprotective and Antiherpetic Properties of Polyphenolic Compounds from Maackia amurensis Heartwood” (Molecules, 2023).
≈ marks a conversion by molar mass, not a printed value. Where “and” joins values, the source holds several entries; their conditions need not be identical. Equal entries are not always repeated. Where two headings read alike, the source gives them in different places.

What was measured:
[1] = Cytotoxicity against Vero cells (MTT assay); type: cell-based; settings: African green monkey (Chlorocebus sp.)
Experimental: (§1) The HSV-1 strain L2 and Vero cell culture (kidney epithelial cells of the African green monkey Chlorocebus sp.) were obtained from the N.F. Gamaleya Federal Research Centre for Epidemiology and Microbiology (Moscow, Russia). HSV-1 was grown in Vero cells, using Dulbecco′s Modified Eagle′s Medium (DMEM, Biolot, St. Petersburg, Russia) supplemented with 10% fetal bovine serum (FBS, Biolot, St. Petersburg, Russia) and 100 U/mL of gentamycin (Dalkhimpharm, Khabarovsk, Russia), at 37 °C in a CO2 incubator. In the maintenance medium, the FBS concentration was decreased to 1%.
(§2) The tested compounds were dissolved in DMSO (Sigma, St. Louis, MO, USA) at a concentration 10 mg/mL and stored at −20 °C. For cytotoxicity and anti-HSV-1 activity determination, the stock solutions were diluted with DMEM so that the final concentration of DMSO was 0.5%.
The cytotoxicity evaluation of the studied compounds was performed using the MTT assay, as described previously. In brief, confluent Vero cells in 96-well microplates (1 × 10^4 cells/well) were incubated with tested compounds at various concentrations (1–500 μg/mL) at 37 °C for 48 h (5% CO2). Untreated cells were used as controls. Then, MTT solution (methylthiazolyltetrazolium bromide, Sigma, St. Louis, MO, USA) was added to cells at a concentration of 5 mg/mL and the cells were incubated at 37 °C for 2 h. After dissolution of formazan crystals, optical densities were read at 540 nm (Labsystems Multiskan RC, Vantaa, Finland). […] [42]. Experiments were performed in triplicate and repeated three times.

HSV-1 [2] = assay: Anti-HSV-1 activity, cytopathic effect (CPE) inhibition assay in Vero cells; type: cell-based, HSV-1 strain L2; settings: for IC50: read-out: IC50 (CPE assay); for SI = CC50/IC50: Vero cells, HSV-1
Experimental: as §1, §2
The anti-HSV-1 activity of stilbenes was evaluated using cytopathic effect (CPE) inhibition assay in Vero cells. We infected the monolayer of cells grown in 96-well plates (1 × 10^4 cells/well) with 100 µL/well of virus suspension (100 TCD50/mL) and we simultaneously treated it with stilbenes 1–6 (100 µL/well) at various concentrations (from 1 to 400 μg/mL) for one hour at 37 ◦C. After virus absorption, we removed the mixture of virus and stilbenes, washed the cells, and added the maintenance medium with 1% FBS. […] We used MTT assay to evaluate the antiviral activity of stilbenes. The viral inhibition rate (IR, %) was calculated according to Equation (3):(3) IR, %=Atv−Acv/Acd−Acv×100, where: • Atv is the absorbance of cells infected with virus and treated with a polyphenolic compound; • Acv is the absorbance of the untreated virus-infected cells; • Acd is the absorbance of control (untreated and non-infected) cells.
The selectivity index (SI) was calculated as the ratio of CC50 to IC50. Experiments were repeated three times.

HSV-1 [3] = assay: Anti-HSV-1 activity, HSV-1 DNA level by real-time PCR (RT-PCR); type: cell-based, HSV-1 strain L2; settings: 5 µg/mL, simultaneous treatment, 48 h; for 1, 4 and Maxar given on average
Experimental: The anti-HSV-1 activity of the polyphenolic compounds from M. amurensis was also studied using the real-time PCR (RT-PCR) technique (Figure 5 and Table S69, Supplementary Data). Vero cells were simultaneously infected with 100 TCD50/mL HSV-1 and treated with polyphenolic compounds 1–6 at concentrations of 50 and 5 μg/mL. After 48 h of cell incubation, viral DNA was extracted from the supernatants, and the relative level of HSV-1 DNA was determined using RT-PCR. The effect of stilbenes on the relative level of viral DNA was assessed by 2^−ΔCt method and reported as fold reduction relative to virus control, to which the value of 1.0 was assigned.
For the viral DNA extraction assay, Vero cells grown in 96-well plates were infected with HSV-1 and simultaneously treated with polyphenolic compounds and incubated at 37 °C in a CO2-incubator for 48 h. After incubation, the culture media and the cells scraped from the plate were transferred to centrifuge tubes. The cell debris was removed by centrifugation at 300× g for 10 min. Then, supernatant was collected and kept at −20 °C. The HSV-1 DNA was extracted from supernatant by using the AmpliSens® DNA-sorb-AM (K1-12-100-CE) nucleic acid extraction kit (Moscow, Russia) according to the manufacturer′s instructions. […]
The DNA HSV was detected in the obtained DNA samples using the AmpliSens® HSV I, II-FRT-100F PCR kit (Moscow, Russia) on a real-time PCR instrument Rotor-Gene Q (Qiagen, Hilden, Nordrhein-Westfalen, Germany) according to the manufacturer′s instructions. […] In the real-time PCR, the amplified product is detected with the use of fluorescent dyes. […] The threshold cycle number, Ct, was measured as the PCR cycle, where the amount of amplified target reached the threshold value. The reduction in the HSV-1 DNA levels in culture supernatants was assessed by the change in the threshold cycle (ΔCt) (Equation (4)):(4) ΔCt=Cttv−Ctcv where: • Cttv is the average Ct value for the infected samples after treatment with polyphenolic compounds; • Ctcv corresponds to the average Ct value for the virus control. […]

[4] = DPPH radical scavenging assay; settings: 20 min; for IC50: read-out: DPPH Scavenging Effect IC50
Experimental: The DPPH (2,2-diphenyl-1-picrylhydrazyl) scavenging effect of polyphenolic compounds 1-6 from M. amurensis heartwood was evaluated as described previously in [40]. Stilbenes were added to DPPH solution in MeOH (10^−4 M) at a concentration range from 1 to 34 µM. The mixture was kept in the dark at room temperature for 20 min. Then, we measured the absorbance at 517 nm using a Shimadzu UV 1240 spectrophotometer (Shimadzu, Kyoto, Japan). The DPPH radical-scavenging effect (%) of the stilbenes was calculated using Equation (1): (1) DPPH scavenging effect, %=A0−Ax/A0×100, where: • A0 is the absorbance of DPPH solution without polyphenolic compounds (blank sample); • Ax is the absorbance of DPPH solution in the presence of different concentrations of polyphenolic compounds.
Quercetin and ascorbic acid were used as reference compounds. All experiments were performed in triplicate. The half maximal inhibitory concentration (IC50) for polyphenolic compounds was calculated by plotting the DPPH scavenging effect (%) against the concentrations of polyphenolic compounds. IC50 values are given as the mean ± SEM.

[5] = Ferric reducing antioxidant power (FRAP) assay; settings: 4 min, pH 3.6
Experimental: The FRAP assay was carried out as described in [41]. We prepared FRAP reagent by mixing 2.5 mL of TPTZ (2,4,6-tris(2-pyridyl)-s-triazine) solution (10 mM) in 40 mM HCl and […] of FeCl3 solution (20 mM) in acetate buffer solution (300 mM, pH 3.6). Then, we added stilbenes 1–6 to 3 mL of FRAP reagent at concentrations from 1 to 34 µM. The mixture was kept in the dark at room temperature for 4 min. Then, we measured the absorbance at 595 nm using a Shimadzu UV 1240 spectrophotometer. Equation (2) was used to calculate the FRAP values of stilbenes 1–6:(2) FRAP=CFe/Cx, where: • CFe is the concentration of Fe^2+ (µM) formed in the reaction; • Cx is the concentration of polyphenolic compounds in the reacting mixture.
The concentration of Fe^2+ (µM) formed in the reaction was determined using the calibration curve obtained for different concentrations of FeSO4·7H2O.

[6] = tested on: PQ-treated Neuro-2a cells; assay: PQ-induced neurotoxicity model, cell viability (MTT assay); type: cell-based, murine; settings: 10, 1, 0.1 μM, PQ 1 mM
Experimental: After 24 h of adhesion, we treated Neuro-2a cells (1 × 10^4 cells/well) with stilbenes (0.01–10 μM) for 1 h and added 1 mM of PQ (Sigma-Aldrich, St. Louis, MO, USA). Cells incubated without PQ or with PQ were used as positive and negative control, respectively. After 24 h, we measured the cell viability using MTT assay. The results are presented as percentages of the positive control value.

[7] = tested on: PQ-treated Neuro-2a cells; assay: Intracellular ROS level in PQ-treated cells (H2DCF-DA); type: cell-based, murine; settings: 10, 1, 0.1 μM
Experimental: After 24 h of adhesion, Neuro-2a cells (1 × 10^4 cells/well) were incubated with stilbenes (0.01–10 µM) for 1 h. After that, we added PQ (1 mM) to each well and incubated the cells for 3 h. To study ROS formation, we added 20 µL of 2,7-dichlorodihydrofluorescein diacetate solution ([…], H2DCF-DA, Molecular Probes, Eugene, OR, USA) to each well, so that the concentration was 10 µM, and kept the microplate in a CO2–incubator for additional 30 min at 37 °C.

[8] = tested on: PQ-treated Neuro-2a cells; assay: Mitochondrial membrane potential in PQ-treated cells (TMRM); type: cell-based, murine; settings: 10 μM
Experimental: […] Then, we added PQ (500 μM) and kept the cell suspension in a CO2-incubator for 1 h. Cells incubated without PQ and stilbenes and with PQ only were used as positive and negative control, respectively. We added the tetramethylrhodamine methyl (TMRM) (Sigma-Aldrich, St. Louis, MO, USA) solution (500 nM) to each well and kept the cells for 30 min in a CO2-incubator at 37 °C. The intensity of fluorescence was measured with a PHERAstar […] reader (BMG Labtech, Ortenberg, Germany) at λex = 540 nm and λem = 590 nm. We processed the data by MARS Data Analysis v. 3.01R2 (BMG Labtech, Ortenberg, Germany) and presented the results as percentages of the positive control value.

[9] = Human alphaherpesvirus 1, added to Vero cells simultaneously with the virus, 100 TCD50/mL

Structure (SMILES)	CC50 at 48 h [1]	IC50 (HSV-1 [2]; [9])	SI = CC50/IC50 (HSV-1 [2])	Reduction of relative level of HSV-1 DNA relative to virus control (HSV-1 [3]) [log10]	DPPH Scavenging Effect IC50 [4] [µg]	IC50 [4] [µM]	FRAP CFe2+(µM)/Cpolyphenolic compound (µM) [5]	FRAP CFe2+(µM)/Cpolyphenolic compound (μkg/mL) [5]	Effect on viability of PQ-treated cells [6]	IC50 (HSV-1 [2]; Human alphaherpesvirus 1, Vero)	Effect on ROS level in PQ-treated cells [7]	Increase of mitochondrial membrane potential compared to PQ-treated cells [8] [%]
Nc1nc2c(ncn2COCCO)c(=O)[nH]1 [Acyclovir, reference compound]	> 1000 µg/mL and > 4 mM	2.1 µg/mL and 9.3 µM	430	4	–	–	–	–	–	–	–	–
O=C1O[C@H]([C@@H](O)CO)C(O)=C1O [Ascorbic acid, reference compound]	–	–	–	–	5.83 ± 0.49	33.1 ± 2.8	3.58 ± 0.29 CFe2+(µM)/Cpolyphenolic compound (µM)	20.34 ± 0.16 CFe2+(µM)/Cpolyphenolic compound (μkg/mL)	–	–	–	–
Oc1cc(O)cc(/C=C/c2ccc(O)c(O)c2)c1 [Compound 2, piceatannol]	250 ± 30 µg/mL (≈ 1020 µM)	22 µg/mL and 90.2 µM	11.4 ± 1.4	–	1.05 ± 0.12	4.3 ± 0.5	15.71 ± 1.43 CFe2+(µM)/Cpolyphenolic compound (µM)	64.38 ± 5.86 CFe2+(µM)/Cpolyphenolic compound (μkg/mL)	did not show any effect	–	–	–
COc1ccc(-c2coc3c4c(ccc3c2=O)OC(c2cc(O)cc(O)c2)C(c2ccc(O)c(O)c2)O4)cc1 (stereo not drawn) [Compound 5, maackiasine]	156 µg/mL and 297 µM	–	6.6 and 6.6 ± 0.8	–	1.32 ± 0.16	2.5 ± 0.3	2.50 ± 0.38 CFe2+(µM)/Cpolyphenolic compound (µM)	4.75 ± 0.72 CFe2+(µM)/Cpolyphenolic compound (μkg/mL)	did not show any effect	23.7 µg/mL and 45 µM	–	–
COc1cc([C@@H]2c3c(O)cc(O)cc3[C@@H]3[C@H]2CO[C@@H]3c2ccc(O)c(O)c2)cc(OC)c1O [Compound 6, maackolin]	256 µg/mL and 567 µM	–	6.4 and 6.4 ± 0.8	–	0.90 ± 0.14	2 ± 0.3	–	51.11 ± 5.86 CFe2+(µM)/Cpolyphenolic compound (μkg/mL)	–	40.2 µg/mL and 88.9 µM	did not decrease the ROS level	9
O=c1c(O)c(-c2ccc(O)c(O)c2)oc2cc(O)cc(O)c12 [Quercetin, reference compound]	–	–	–	–	2.81 ± 0.12	9.3 ± 0.4	5.53 ± 0.55 CFe2+(µM)/Cpolyphenolic compound (µM)	18.3 ± 1.82 CFe2+(µM)/Cpolyphenolic compound (μkg/mL)	–	–	–	–
